Measurements from patent publication US12427187B2, “Glucose-responsive insulin conjugates” (priority 2019, dated 2025).
Read-outs that look alike come from different tables or passages of the source.

Molecular target: T1, Human macrophage mannose receptor 1 (MRC1) (Homo sapiens, UniProt P22897)
T1 sequence (P22897 19-1456): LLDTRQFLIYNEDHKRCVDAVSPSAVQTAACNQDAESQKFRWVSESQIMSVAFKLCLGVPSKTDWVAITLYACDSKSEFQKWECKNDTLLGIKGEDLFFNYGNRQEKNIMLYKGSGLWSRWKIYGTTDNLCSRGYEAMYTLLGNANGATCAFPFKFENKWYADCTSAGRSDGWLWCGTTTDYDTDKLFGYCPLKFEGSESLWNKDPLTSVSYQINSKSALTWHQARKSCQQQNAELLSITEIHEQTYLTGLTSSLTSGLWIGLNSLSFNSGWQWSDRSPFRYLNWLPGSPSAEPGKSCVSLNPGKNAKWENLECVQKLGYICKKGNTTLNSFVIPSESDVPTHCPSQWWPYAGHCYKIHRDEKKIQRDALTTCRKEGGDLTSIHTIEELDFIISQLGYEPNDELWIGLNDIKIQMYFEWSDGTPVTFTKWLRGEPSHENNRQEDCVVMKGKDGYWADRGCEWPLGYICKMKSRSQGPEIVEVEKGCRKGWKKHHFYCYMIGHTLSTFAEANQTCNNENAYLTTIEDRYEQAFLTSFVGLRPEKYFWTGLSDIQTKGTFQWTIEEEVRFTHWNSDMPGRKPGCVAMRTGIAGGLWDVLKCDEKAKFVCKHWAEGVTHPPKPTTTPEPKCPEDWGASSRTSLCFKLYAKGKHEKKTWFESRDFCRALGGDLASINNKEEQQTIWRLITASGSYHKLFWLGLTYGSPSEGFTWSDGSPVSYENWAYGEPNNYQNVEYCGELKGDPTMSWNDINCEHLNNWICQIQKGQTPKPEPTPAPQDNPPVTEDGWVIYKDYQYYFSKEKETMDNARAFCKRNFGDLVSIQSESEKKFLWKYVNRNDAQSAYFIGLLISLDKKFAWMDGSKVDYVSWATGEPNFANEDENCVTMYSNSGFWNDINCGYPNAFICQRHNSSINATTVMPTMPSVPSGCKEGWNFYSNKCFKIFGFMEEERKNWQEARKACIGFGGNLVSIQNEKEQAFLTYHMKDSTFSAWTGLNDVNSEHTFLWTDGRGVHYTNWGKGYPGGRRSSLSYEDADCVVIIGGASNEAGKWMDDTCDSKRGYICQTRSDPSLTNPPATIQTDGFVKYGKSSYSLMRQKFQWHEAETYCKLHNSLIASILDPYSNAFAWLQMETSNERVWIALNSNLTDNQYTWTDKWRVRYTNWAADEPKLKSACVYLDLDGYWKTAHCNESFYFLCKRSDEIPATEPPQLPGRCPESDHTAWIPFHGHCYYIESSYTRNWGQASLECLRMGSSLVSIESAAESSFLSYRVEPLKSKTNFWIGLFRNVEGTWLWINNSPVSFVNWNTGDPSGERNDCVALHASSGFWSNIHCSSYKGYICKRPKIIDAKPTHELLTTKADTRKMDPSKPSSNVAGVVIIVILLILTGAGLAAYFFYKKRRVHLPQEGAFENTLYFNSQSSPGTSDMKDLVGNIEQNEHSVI
Assay: MRC1 competition binding assay with Eu-mannosylated-BSA
Conditions: IP = inflection point

[1] = Method F: 384-well plate, read-out: MRC1 Binding IP
[2] = Method E: 96-well plate, read-out: MRC1 Binding IP

Protocol: The competition binding assay for Human macrophage mannose receptor 1 (MRC1) utilized a ligand, mannosylated-BSA labeled with the DELFIA Eu-N1-ITC reagent, as reported in the literature. Assay was performed either in a 96-well plate with 100 μL well volume (Method E) or in a 384-well plate with 25 μL well volume (Method F). […] The antibody was incubated in the plate for 1 hr at rt with shaking. The plate was washed with wash buffer 3-5 times followed by addition of MRC1 (2 ng/μl final concentration) in PBS containing 1% stabilizer BSA. The plate was incubated at rt with gentle shaking for 1 hr. The plate was washed three times with wash buffer. The IOC molecules in 12.5 μL (or 50 μL depending on plate format) buffer at appropriate concentrations were added followed by 12.5 μL (or 50 μL) Eu-mannosylated-BSA (0.1 nm final concentration) in 50 mM Tris, pH 7.5 containing 100 mM NaCl, 5 mM CaCl2, 1 mM MgCl2 and 0.2% stabilizer BSA. The plate was incubated for 2 hrs at rt with shaking followed by washing three times with wash buffer.

| IC50 [1] | IC50 [2] | SMILES | other results |
| --- | --- | --- | --- |
|  | 2.38 nM | CC(=O)[C@H](CCCCN)NC(=O)CCCCCNC(=O)[C@H](CCCCNC(=O)CCCCCNC(=O)CN(CC(=O)NCCO[C@H]1O[C@H](CO)[C@@H](O)[C@H](O)[C@@H]1O)CC(=O)NCCO[C@H]1O[C@H](CO[C@H]2O[C@H](CO)[C@@H](O)[C@H](O)[C@@H]2O)[C@@H](O)[C@H](O[C@H]2O[C@H](CO)[C@@H](O)[C@H](O)[C@@H]2O)[C@@H]1O)NC(=O)[C@H](CCCCNC(=O)CCCCCNC(=O)CN(CC(=O)NCCO[C@H]1O[C@H](CO)[C@@H](O)[C@H](O)[C@@H]1O)CC(=O)NCCO[C@H]1O[C@H](CO[C@H]2O[C@H](CO)[C@@H](O)[C@H](O)[C@@H]2O)[C@@H](O)[C@H](O[C@H]2O[C@H](CO)[C@@H](O)[C@H](O)[C@@H]2O)[C@@H]1O)NC(=O)CCCCCNC(=O)CN(CC(=O)NCCO[C@H]1O[C@H](CO)[C@@H](O)[C@H](O)[C@@H]1O)CC(=O)NCCO[C@H]1O[C@H](CO[C@H]2O[C@H](CO)[C@@H](O)[C@H](O)[C@@H]2O)[C@@H](O)[C@H](O[C@H]2O[C@H](CO)[C@@H](O)[C@H](O)[C@@H]2O)[C@@H]1O [IOC-39] |  |
|  | 7.56 nM | CC(=O)[C@H](CCCCN)NC(=O)CCCCC(=O)N[C@@H](CCC(=O)NCCO[C@H]1O[C@H](CO[C@H]2O[C@H](CO)[C@@H](O)[C@H](O)[C@@H]2O)[C@@H](O)[C@H](O[C@H]2O[C@H](CO)[C@@H](O)[C@H](O)[C@@H]2O)[C@@H]1O)C(=O)N[C@@H](CCC(=O)NCCO[C@H]1O[C@H](CO[C@H]2O[C@H](CO)[C@@H](O)[C@H](O)[C@@H]2O)[C@@H](O)[C@H](O[C@H]2O[C@H](CO)[C@@H](O)[C@H](O)[C@@H]2O)[C@@H]1O)C(=O)N[C@@H](CC(C)C)C(=O)NCCO[C@H]1O[C@H](CO[C@H]2O[C@H](CO)[C@@H](O)[C@H](O)[C@@H]2O)[C@@H](O)[C@H](O[C@H]2O[C@H](CO)[C@@H](O)[C@H](O)[C@@H]2O)[C@@H]1O [IOC-4] |  |
|  | 9.12 nM | CC(=O)[C@H](CCCCN)NC(=O)CCCCC(=O)NCC(=O)N[C@@H](CCC(=O)N[C@@H](CCC(=O)NCCCCCC(=O)NCCO[C@H]1O[C@H](CO[C@H]2O[C@H](CO)[C@@H](O)[C@H](O)[C@@H]2O)[C@@H](O)[C@H](O[C@H]2O[C@H](CO)[C@@H](O)[C@H](O)[C@@H]2O)[C@@H]1O)C(=O)NCCCCCC(=O)NCCOC1O[C@H](CO[C@H]2O[C@H](CO)[C@@H](O)[C@H](O)[C@@H]2O)[C@@H](O)[C@H](O[C@H]2O[C@H](CO)[C@@H](O)[C@H](O)[C@@H]2O)[C@@H]1O)C(=O)NCCCCCC(=O)NCCO[C@H]1O[C@H](CO[C@H]2O[C@H](CO)[C@@H](O)[C@H](O)[C@@H]2O)[C@@H](O)[C@H](O[C@H]2O[C@H](CO)[C@@H](O)[C@H](O)[C@@H]2O)[C@@H]1O (stereo partly shown) [IOC-5] |  |
| 16.6 nM |  | CC(=O)[C@H](CCCCN)NC(=O)CCCCC(=O)NCC(=O)N[C@@H](CCC(=O)N[C@@H](CCC(=O)NCCCCCC(=O)N(CCOC1O[C@H](CO)[C@@H](O)[C@H](O)[C@@H]1O)CCO[C@H]1O[C@H](CO)[C@@H](O)[C@H](O)[C@@H]1O)C(=O)NCCCCCC(=O)N(CCOC1O[C@H](CO)[C@@H](O)[C@H](O)[C@@H]1O)CCOC1O[C@H](CO)[C@@H](O)[C@H](O)[C@@H]1O)C(=O)NCCCCCC(=O)NCCO[C@H]1O[C@H](CO[C@H]2O[C@H](CO)[C@@H](O)[C@H](O)[C@@H]2O)[C@@H](O)[C@H](O[C@H]2O[C@H](CO)[C@@H](O)[C@H](O)[C@@H]2O)[C@@H]1O (stereo partly shown) [IOC-35] |  |
| 10 nM |  | CC(=O)[C@H](CCCCN)NC(=O)CCCCC(=O)NCC(=O)N[C@@H](CCC(=O)N[C@@H](CCC(=O)NCCCCCC(=O)N(CCOC1O[C@H](CO)[C@@H](O)[C@H](O)[C@@H]1O)CCO[C@H]1O[C@H](CO)[C@@H](O)[C@H](O)[C@@H]1O)C(=O)NCCCCCC(=O)N(CCOC1O[C@H](CO)[C@@H](O)[C@H](O)[C@@H]1O)CCOC1O[C@H](CO)[C@@H](O)[C@H](O)[C@@H]1O)C(=O)NCCCCCC(=O)NCCO[C@H]1O[C@H](CO[C@H]2O[C@H](CO)[C@@H](O)[C@H](O)[C@@H]2O)[C@@H](O)[C@H](O[C@H]2O[C@H](CO)[C@@H](O)[C@H](O)[C@@H]2O)[C@@H]1O (stereo partly shown) [IOC-33] |  |

Continued, molecule first:

| SMILES | IC50 [1] | IC50 [2] | other results |
| --- | --- | --- | --- |
| CC(=O)[C@H](CCCCN)NC(=O)CCCCCNC(=O)[C@H](CCCCNC(=O)CCCCCNC(=O)CN(CC(=O)NCCO[C@H]1O[C@H](CO)[C@@H](O)[C@H](O)[C@@H]1O)CC(=O)NCCO[C@H]1O[C@H](CO)[C@@H](O)[C@H](O)[C@@H]1O)NC(=O)[C@H](CCCCNC(=O)CCCCCNC(=O)CN(CC(=O)NCCO[C@H]1O[C@H](CO)[C@@H](O)[C@H](O)[C@@H]1O)CC(=O)NCCO[C@H]1O[C@H](CO)[C@@H](O)[C@H](O)[C@@H]1O)NC(=O)CCCCCNC(=O)CN(CC(=O)NCCO[C@H]1O[C@H](CO)[C@@H](O)[C@H](O)[C@@H]1O)CC(=O)NCCO[C@H]1O[C@H](CO)[C@@H](O)[C@H](O)[C@@H]1O [IOC-40] | 24.7 nM |  |  |
| CC(=O)[C@H](CCCCN)NC(=O)CCCCCNC(=O)[C@H](CCCCNC(=O)CCCCCNC(=O)CN(CC(=O)NCCO[C@@H]1O[C@@H](C)[C@@H](O)[C@@H](O)[C@@H]1O)CC(=O)NCCO[C@@H]1O[C@@H](C)[C@@H](O)[C@@H](O)[C@@H]1O)NC(=O)[C@H](CCCCNC(=O)CCCCCNC(=O)CN(CC(N)=O)CC(=O)NCCO[C@@H]1CC(C)[C@@H](O)[C@@H](O)[C@@H]1O)NC(=O)CCCCCNC(=O)CN(CC(=O)NCCO[C@@H]1O[C@@H](C)[C@@H](O)[C@@H](O)[C@@H]1O)CC(=O)NCCO[C@@H]1O[C@@H](C)[C@@H](O)[C@@H](O)[C@@H]1O (stereo partly shown) [IOC-41] |  |  | IC50 (MRC1 Binding IP, Method F: 384-well plate): 6.09 nM |
| CC(=O)[C@H](CCCCN)NC(=O)CCCCCNC(=O)[C@H](CCCCNC(=O)CCOCCOCCNC(=O)CN(CC(=O)NCCO[C@@H]1O[C@@H](C)[C@@H](O)[C@@H](O)[C@@H]1O)CC(=O)NCCO[C@@H]1O[C@@H](C)[C@@H](O)[C@@H](O)[C@@H]1O)NC(=O)[C@H](CCCCNC(=O)CCOCCOCCNC(=O)CN(CC(=O)NCCO[C@@H]1O[C@@H](C)[C@@H](O)[C@@H](O)[C@@H]1O)CC(=O)NCCO[C@@H]1O[C@@H](C)[C@@H](O)[C@@H](O)[C@@H]1O)NC(=O)CCOCCOCCNC(=O)CN(CC(=O)NCCO[C@@H]1O[C@@H](C)[C@@H](O)[C@@H](O)[C@@H]1O)CC(=O)NCCO[C@@H]1O[C@@H](C)[C@@H](O)[C@@H](O)[C@@H]1O [IOC-43] | 8.25 nM |  |  |
| CC(=O)[C@H](CCCCN)NC(=O)CCCCCNC(=O)[C@H](CCCCNC(=O)[C@H](CCCCNC(=O)CCCCCNC(=O)CN(CC(=O)NCCO[C@@H]1O[C@@H](C)[C@@H](O)[C@@H](O)[C@@H]1O)CC(=O)NCCO[C@@H]1O[C@@H](C)[C@@H](O)[C@@H](O)[C@@H]1O)NC(=O)CN(CC(=O)NCCO[C@@H]1O[C@@H](C)[C@@H](O)[C@@H](O)[C@@H]1O)CC(=O)NCCO[C@@H]1O[C@@H](C)[C@@H](O)[C@@H](O)[C@@H]1O)NC(=O)CN(CC(=O)NCCO[C@@H]1O[C@@H](C)[C@@H](O)[C@@H](O)[C@@H]1O)CC(=O)NCCO[C@@H]1O[C@@H](C)[C@@H](O)[C@@H](O)[C@@H]1O [IOC-45] | 8.91 nM |  |  |
| CC(=O)[C@H](CCCCN)NC(=O)CCCCCNC(=O)[C@H](CCCCNC(=O)CN(CC(=O)NCCO[C@@H]1O[C@@H](C)[C@@H](O)[C@@H](O)[C@@H]1O)CC(=O)NCCO[C@@H]1O[C@@H](C)[C@@H](O)[C@@H](O)[C@@H]1O)NC(=O)[C@H](CCCCNC(=O)CN(CC(=O)NCCO[C@@H]1O[C@@H](C)[C@@H](O)[C@@H](O)[C@@H]1O)CC(=O)NCCO[C@@H]1O[C@@H](C)[C@@H](O)[C@@H](O)[C@@H]1O)NC(=O)CN(CC(=O)NCCO[C@@H]1O[C@@H](C)[C@@H](O)[C@@H](O)[C@@H]1O)CC(=O)NCCO[C@@H]1O[C@@H](C)[C@@H](O)[C@@H](O)[C@@H]1O [IOC-47] | 10.6 nM |  |  |
